28 molecules from patent US9975903B2, “Condensed heterocyclic compound” (Takeda Pharmaceutical Company Limited, priority 2014, dated 2018) can be followed below.

What is called inhibition is the relative decrease from the control value, in per cent.

Where a name gives a salt, the structure may show the parent alone.

T1 sequence (P98073 whole entry): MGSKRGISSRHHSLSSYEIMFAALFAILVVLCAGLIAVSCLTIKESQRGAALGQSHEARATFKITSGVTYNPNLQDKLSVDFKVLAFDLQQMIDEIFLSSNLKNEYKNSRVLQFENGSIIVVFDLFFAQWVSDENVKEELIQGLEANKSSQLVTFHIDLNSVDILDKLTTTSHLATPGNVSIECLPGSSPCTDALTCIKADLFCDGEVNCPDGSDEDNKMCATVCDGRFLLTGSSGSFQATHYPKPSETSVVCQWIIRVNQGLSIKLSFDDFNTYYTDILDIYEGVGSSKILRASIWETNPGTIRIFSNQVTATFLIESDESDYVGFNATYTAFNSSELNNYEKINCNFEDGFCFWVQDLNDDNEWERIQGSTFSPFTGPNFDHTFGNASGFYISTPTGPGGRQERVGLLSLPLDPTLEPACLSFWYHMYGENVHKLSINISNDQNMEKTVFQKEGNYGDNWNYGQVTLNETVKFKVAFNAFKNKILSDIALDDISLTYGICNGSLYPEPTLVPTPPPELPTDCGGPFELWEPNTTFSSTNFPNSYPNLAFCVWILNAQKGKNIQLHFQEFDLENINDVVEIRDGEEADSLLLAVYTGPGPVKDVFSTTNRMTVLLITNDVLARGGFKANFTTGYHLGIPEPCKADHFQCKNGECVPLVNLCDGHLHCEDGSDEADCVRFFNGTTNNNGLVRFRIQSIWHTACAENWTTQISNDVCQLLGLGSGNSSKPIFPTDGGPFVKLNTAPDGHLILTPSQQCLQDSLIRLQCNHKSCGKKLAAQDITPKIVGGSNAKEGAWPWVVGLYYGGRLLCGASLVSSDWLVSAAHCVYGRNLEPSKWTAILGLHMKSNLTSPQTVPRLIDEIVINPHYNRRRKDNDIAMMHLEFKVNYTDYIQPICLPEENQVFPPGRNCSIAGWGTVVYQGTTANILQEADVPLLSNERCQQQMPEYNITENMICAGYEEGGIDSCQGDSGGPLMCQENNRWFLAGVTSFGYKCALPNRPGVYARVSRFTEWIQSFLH

One experiment addresses T1, Human recombinant enteropeptidase (Homo sapiens, UniProt P98073).
T1 construct: purchased ITSI-Biosciences LLC #REN-260
The experiment in a line: Human enteropeptidase inhibitory activity (Test Example 1). Format: biochemical. The conditions noted are these: 3.3 μM test compound; inhibition rate from fluorescence intensity at 2 hours after the start of the reaction. The method in brief:
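Recombinant human enteropeptidase in 50 mM Tricine pH 8.0, 0.01% Tween 20, 10 mM CaCl2, with a 5FAM/CPQ2-quenched peptide substrate (2.1 μM solution before mixing). Compound came from 1 mM DMSO stock diluted 100-fold in buffer. Fluorescence (ex 485/em 535 nm) at 2 h gave % inhibition versus no-compound and no-enzyme controls.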
`N=C(N)Nc1ccc2c(c1)OCCCOc1cc(CCC(=O)N[C@@H](CC(=O)O)C(=O)O)ccc1OC2=O` [Example 51, N-(3-(3-carbamimidamido-15-oxo-7,8-dihydro-6H,15H-dibenzo[b,f][1,4,8]trioxacyclo-undecin-11-yl)propanoyl) aspartic acid]: the “3.3 μM Inhibition” value was 101%.

Still in this experiment, the particulars now being: 3.3 μM test compound; inhibition rate from fluorescence intensity at 2 hours after the start of the reaction; read-out: 3.3 μM Inhibition.
Take `N=C(N)Nc1ccc2c(c1)CCCOc1c(cccc1C(=O)NC(CC(=O)O)CC(=O)O)OC2=O` [Example 11, 3-(((10-Carbamimidamido-13-oxo-6,7,8,13-tetrahydrodibenzo[b,f][1,4]dioxecin-4-yl)carbonyl)amino)pentanedioic acid]: the inhibition at 3.3 µM is 101%.

Turning to `N=C(N)Nc1ccc2c(c1)CCCCCCc1c(cccc1C(=O)N[C@@H](CC(=O)O)C(=O)O)OC2=O` [Example 77, N-((3-Carbamimidamido-16-oxo-5,7,8,9,10,16-hexahydro-6H-dibenzo[b,j]oxacyclododecin-11-yl)carbonyl)-L-aspartic acid], the inhibition at 3.3 µM turned out to be 99%.

In the case of `N=C(N)Nc1ccc2c(c1)CCCOc1c(cccc1C(=O)N(CC(=O)O)[C@@H](Cc1ccc(OCCN(CC(=O)O)CC(=O)O)cc1)C(=O)O)OC2=O` [Example 108, O-(2-(Bis(carboxymethyl)amino)ethyl)-N-((10-carbamimidamido-13-oxo-6,7,8,13-tetrahydrodibenzo[b,f][1,4]dioxecin-4-yl)carbonyl)-N-(carboxymethyl)-L-tyrosine], the inhibition at 3.3 µM was 100%.

With `CN(C(=O)CCc1cccc2c1OCCCc1cc(NC(=N)N)ccc1C(=O)O2)[C@@H](CC(=O)O)C(=O)O` [Example 102, N-(3-(10-carbamimidamido-13-oxo-6,7,8,13-tetrahydro-dibenzo[b,f] [1,4]dioxecin-4-yl)propanoyl)-N-methyl-L-aspartic acid], the inhibition at 3.3 µM amounted to 101%.

Turning to `N=C(N)c1ccc2c(c1)CCc1cc(C(=O)N[C@@H](CC(=O)O)C(=O)O)ccc1C(=O)O2` [Example 63, N-((2-carbamimidoyl-6-oxo-11,12-dihydro-6H-dibenzo[b,f]oxocin-9-yl)carbonyl)-L-aspartic acid], the inhibition at 3.3 µM was determined as 93%.

For the molecule `N=C(N)Nc1ccc2c(c1)CCCOc1c(cccc1C1=NOC(CC(=O)O)(C(=O)O)C1)OC2=O` (stereo not shown) [Example 23, 3-(10-Carbamimidamido-13-oxo-6,7,8,13-tetrahydrodibenzo[b,f][1,4]dioxecin-4-yl)-5-(carboxymethyl)-4,5-dihydro-1,2-oxazole-5-carboxylic acid], the inhibition at 3.3 µM is 102%.

On to `N=C(N)Nc1ccc2c(c1)CCCOc1c(cccc1C(=O)NCP(=O)(O)O)OC2=O` [Example 25, ((((10-carbamimidamido-13-oxo-6,7,8,13-tetrahydro-dibenzo[b,f] [1,4]dioxecin-4-yl)carbonyl)amino)methyl)phosphonic acid], for which the inhibition at 3.3 µM amounted to 102%.

As for `N=C(N)Nc1ccc2c(c1)CCCCCc1c(cccc1C(=O)N[C@@H](CC(=O)O)C(=O)O)OC2=O` [Example 76, N-((3-Carbamimidamido-15-oxo-5,6,7,8,9,15-hexahydrodibenzo[b,i]hexacycloundecin-10-yl)carbonyl)-L-aspartic acid], the inhibition at 3.3 µM came to 101%.

Turning to `N=C(N)Nc1ccc2c(c1)CCc1c(CCC(=O)N[C@@H](CC(=O)O)C(=O)O)cccc1OC2=O` [Example 57, N-(3-(9-Carbamimidamido-6-oxo-11,12-dihydro-6H-dibenzo[b,f]oxocin-1-yl)propanoyl)-L-aspartic acid trifluoroacetate], the inhibition at 3.3 µM is 100%.

As to `N=C(N)Nc1ccc2c(c1)CCCOc1c(cccc1C(=O)N(CC(=O)O)CC(=O)N(CC(=O)O)CC(=O)O)OC2=O` [Example 115, ((2-(Bis(carboxymethyl)amino)-2-oxoethyl) ((10-carbamimidamido-13-oxo-6,7,8,13-tetrahydrodibenzo[b,f][1,4]dioxecin-4-yl)carbonyl)amino)acetic acid], the inhibition at 3.3 µM was found to be 99%.

Regarding `N=C(N)Nc1ccc2c(c1)CCCCc1c(cccc1C(=O)NCCS(=O)(=O)O)OC2=O` [Example 33, 2-(((3-carbamimidamido-14-oxo-5,7,8,14-tetrahydro-6H-dibenzo[b,h]oxecin-9-yl)carbonyl)amino) ethanesulfonic acid], the inhibition at 3.3 µM came to 98%.

With `N=C(N)Nc1ccc2c(c1)CCCOc1c(cccc1C(=O)NCS(=O)(=O)O)OC2=O` [Example 27, (((10-carbamimidamido-13-oxo-6,7,8,13-tetrahydro-dibenzo[b,f] [1,4]dioxecin-4-yl)carbonyl)amino) methanesulfonic acid], the inhibition at 3.3 µM turned out to be 102%.

For the molecule `N=C(N)Nc1ccc2c(c1)CCCOc1c(CCC(=O)O)cccc1OC2=O` [Example 91, 3-(10-Carbamimidamido-13-oxo-6,7,8,13-tetrahydrodibenzo[b,f][1,4]dioxecin-4-yl)propanoic acid trifluoroacetate], the inhibition at 3.3 µM came to 102%.

Turning to `N=C(N)Nc1ccc2c(c1)CCCOc1c(cccc1C(=O)N(CCC(=O)O)CCC(=O)O)OC2=O` [Example 9, 3,3′-(((10-carbamimidamido-13-oxo-6,7,8,13-tetrahydro-dibenzo[b,f] [1,4]dioxecin-4-yl)carbonyl)imino) dipropanoic acid (non-preferred name)], the inhibition at 3.3 µM worked out at 101%.

As to `N=C(N)Nc1ccc2c(c1)CCCCOc1c(CCC(=O)N[C@@H](CC(=O)O)C(=O)O)cccc1OC2=O` [Example 44, N-(3-(11-Carbamimidamido-14-oxo-7,8,9,14-tetrahydro-6H-dibenzo[b,f][1,4]dioxacycloundecin-4-yl)propanoyl)-L-aspartic acid trifluoroacetate], the inhibition at 3.3 µM turned out to be 96%.

Turning to `CC1CCCc2cc(NC(=N)N)ccc2C(=O)Oc2cccc(C(=O)N[C@@H](CC(=O)O)C(=O)O)c21` (stereo partly drawn) [Example 21, N-((3-carbamimidamido-8-methyl-14-oxo-5,7,8,14-tetrahydro-6H-dibenzo[b,h]oxecin-9-yl)carbonyl)-L-aspartic acid], the inhibition at 3.3 µM was found to be 102%.

In the case of `N=C(N)Nc1ccc2c(c1)OCCOc1c(CCC(=O)N[C@@H](CC(=O)O)C(=O)O)cccc1OC2=O` [Example 52, N-(3-(3-Carbamimidamido-14-oxo-6,7-dihydro-14H-dibenzo[b,h][1,4,7]trioxecin-9-yl)propanoyl)aspartic acid trifluoroacetate], the inhibition at 3.3 µM was 101%.

In the case of `N=C(N)Nc1ccc2c(c1)CCCOc1c(ccc(CCC(=O)O)c1C(=O)N(CC(=O)O)CC(=O)O)OC2=O` [Example 119, 3-(4-(Bis(carboxymethyl)carbamoyl)-10-carbamimidamido-13-oxo-6,7,8,13-tetrahydrodibenzo[b,f][1,4]dioxecin-3-yl)propanoic acid], the inhibition at 3.3 µM came to 101%.

With `N=C(N)NCCC[C@H](NC(=O)c1cccc2c1OCCCc1cc(NC(=N)N)ccc1C(=O)O2)C(=O)O` [Example 8, N^~2^~-((10-carbamimidamido-13-oxo-6,7,8,13-tetrahydro-dibenzo[b,f] [1,4]dioxecin-4-yl)carbonyl)-L-arginine], the inhibition at 3.3 µM came to 100%.

In the case of `N=C(N)Nc1ccc2c(c1)CCCOc1c(cccc1C(=O)N(CC(=O)O)Cc1cccc(CN(CC(=O)O)CC(=O)O)c1)OC2=O` [Example 116, N-(3-((Bis(carboxymethyl)amino)methyl)benzyl)-N-((10-carbamimidamido-13-oxo-6,7,8,13-tetrahydrodibenzo[b,f][1,4]dioxecin-4-yl)carbonyl)glycine], the inhibition at 3.3 µM was 99%.

As for `N=C(N)c1ccc2c(c1)CCCCc1c(C(=O)N[C@@H](CC(=O)O)C(=O)O)cccc1C(=O)O2` [Example 98, N-((10-carbamimidoyl-14-oxo-5,7,8,14-tetrahydro-6H-dibenzo[b,h]oxecin-4-yl)carbonyl)-L-aspartic acid], the inhibition at 3.3 µM is 95%.

As to `CN(CC(=O)N[C@@H](CC(=O)O)C(=O)O)C(=O)c1cccc2c1OCCCc1cc(NC(=N)N)ccc1C(=O)O2` [Example 103, N-((10-carbamimidamido-13-oxo-6,7,8,13-tetrahydro-dibenzo[b,f] [1,4]dioxecin-4-yl)carbonyl)-N-methylglycyl-L-aspartic acid], the inhibition at 3.3 µM was determined as 101%.

Consider `N=C(N)Nc1ccc2c(c1)CCCOc1c(cccc1C(=O)N(CC(=O)O)[C@@H](Cc1ccc(O)cc1)C(=O)O)OC2=O` [Example 92, N-((10-carbamimidamido-13-oxo-6,7,8,13-tetrahydro-dibenzo[b,f] [1,4]dioxecin-4-yl)carbonyl)-N-(carboxymethyl)-L-tyrosine], for which the inhibition at 3.3 µM stood at 101%.

As to `Cc1cc2c(c(C(=O)N[C@@H](CC(=O)O)C(=O)O)c1)OCCCc1cc(NC(=N)N)ccc1C(=O)O2` [Example 70, N-((10-carbamimidamido-2-methyl-13-oxo-6,7,8,13-tetrahydro-dibenzo[b,f] [1,4]dioxecin-4-yl)carbonyl)-L-aspartic acid], the inhibition at 3.3 µM worked out at 102%.

Turning to `N=C(N)Nc1ccc2c(c1)CCCCc1c(CCC(=O)N[C@@H](CC(=O)O)C(=O)O)ccc(F)c1OC2=O` [Example 41, N-(3-(3-carbamimidamido-12-fluoro-14-oxo-5,7,8,14-tetrahydro-6H-dibenzo[b,h]oxacin-9-yl)propanoyl)-L-aspartic acid], the inhibition at 3.3 µM was determined as 71%.

`N=C(N)Nc1ccc2c(c1)CCCOc1c(cccc1C(=O)N[C@@H](CCC(N)=O)C(=O)O)OC2=O` [Example 16, N^~2^~-((10-carbamimidamido-13-oxo-6,7,8,13-tetrahydro-dibenzo[b,f] [1,4]dioxecin-4-yl)carbonyl)-L-glutamine]: the inhibition at 3.3 µM is 101%.

`N=C(N)Nc1ccc2c(c1)CCCOc1c(cccc1C(=O)N(Cc1ccc(C(=O)O)cc1)C(CC(=O)O)CC(=O)O)OC2=O` [Example 147, 3-(((10-carbamimidamido-13-oxo-6,7,8,13-tetrahydro-dibenzo[b,f] [1,4]dioxecin-4-yl)carbonyl)(4-carboxybenzyl)amino)penta-nedioic acid]: the inhibition at 3.3 µM was found to be 100%.
